Activity calls are given as the source filed them. No cut-off for these calls is given here.
Key:
[1] = target: Fibroblast growth factor receptor 4 (Homo sapiens) (UniProt P22455); assay: Inhibition of recombinant human His-tagged FGFR4 ([…] residues) expressed in insect cells at 2 uM using Tyr 04 as substrate measured after 1 hr by Z'-LYTE assay relative to control; conditions: Insect cell
[2] = tested on: MDA-MB-361; assay: Inhibition of protein synthesis in human MDA-MB-361 cells at 1 micromol/L incubated for 3 hrs by [3H] methionine incorporation based scintillation counter analysis relative to control; format: functional; conditions: MDA-MB-361, 3 h, dose 1 µmol/L
[3] = target: Ribosomal protein S6 kinase alpha-3 (Homo sapiens) (UniProt P51812); assay: Inhibition of recombinant human full length His-tagged RPS6KA3 expressed in baculovirus expression system at 2 uM using Ser/Thr 06 as substrate measured after 1 hr by Z'-LYTE assay relative to control
[4] = tested on: Proto-oncogene tyrosine-protein kinase receptor Ret (Homo sapiens), P07949 [V804L]; assay: Inhibition of recombinant human GST-tagged RET V804L mutant (658-1114 residues) expressed in baculovirus expression system at 2 uM using Tyr 02 as substrate measured after 1 hr by Z'-LYTE assay relative to control
[5] = tested on: A498; assay: cells; conditions: Homo sapiens, A498, 48 h
Description: Antiproliferative activity against human A498 cells assessed as cell growth inhibition incubated for 2 days by MTS assay

[6] = tested on: PC3MM2; assay: Antiproliferative activity against human PC3MM2 cells assessed as cell growth inhibition incubated for 24 hrs by MTS assay; format: functional, cell-based; conditions: PC3MM2, 24 h
[7] = target: SRSF protein kinase 2 (Homo sapiens) (UniProt P78362); assay: Inhibition of recombinant human full length GST-tagged SRPK2 expressed in insect cells at 2 uM using Ser/Thr 07 as substrate measured after 1 hr by Z'-LYTE assay relative to control; conditions: Insect cell
[8] = Inhibition of recombinant human full-length His-tagged CDK2/cyclin A expressed in insect cells at 2 uM using Ser/Thr 12 as substrate measured after 1 hr by Z'-LYTE assay relative to control; conditions: Insect cell, condition cancer
[9] = target: Serine/threonine-protein kinase Nek1 (Homo sapiens) (UniProt Q96PY6); assay: Inhibition of recombinant human GST-tagged NEK1 (1-505 residues) expressed in insect cells at 2 uM using Ser/Thr 07 as substrate measured after 1 hr by Z'-LYTE assay relative to control; conditions: Insect cell
[10] = target: Serine/threonine-protein kinase N1 (Homo sapiens) (UniProt Q16512); assay: Inhibition of recombinant human full length GST-tagged PKN1 expressed in insect cells at 2 uM using Ser/Thr 07 as substrate measured after 1 hr by Z'-LYTE assay relative to control; conditions: Insect cell
[11] = tested on: NCI-H157; assay: Antiproliferative activity against human NCI-H157 cells assessed as cell growth inhibition incubated for 24 hrs by MTS assay; format: functional, cell-based; conditions: NCI-H157, 24 h
[12] = target: Aurora kinase B (Homo sapiens) (UniProt Q96GD4); assay: Inhibition of recombinant human full-length His-tagged AURKB expressed in insect cells at 2 uM using Ser/Thr 01 as substrate measured after 1 hr by Z'-LYTE assay relative to control; conditions: Insect cell
[13] = target: Interleukin-1 receptor-associated kinase 4 (Homo sapiens) (UniProt Q9NWZ3); assay: Inhibition of recombinant human full-length His-tagged IRAK4 expressed in insect cells at 2 uM using Ser/Thr 07 as substrate measured after 1 hr by Z'-LYTE assay relative to control; conditions: Insect cell
[14] = target: Casein kinase I isoform gamma-1 (Homo sapiens) (UniProt Q9HCP0); assay: Inhibition of recombinant human full-length GST-tagged CSNK1G1 expressed in insect cells at 2 uM using Ser/Thr 05 as substrate measured after 1 hr by Z'-LYTE assay relative to control; conditions: Insect cell
[15] = target: Proto-oncogene tyrosine-protein kinase ROS (Homo sapiens) (UniProt P08922); assay: Inhibition of recombinant human GST-tagged ROS1 (1883-2347 residues) expressed in insect cells at 2 uM using Tyr 01 as substrate measured after 1 hr by Z'-LYTE assay relative to control; conditions: Insect cell
[16] = target: Serine/threonine-protein kinase TAO2 (Homo sapiens) (UniProt Q9UL54); assay: Inhibition of recombinant human GST-tagged TAOK2 (1-314 residues) expressed in insect cells at 2 uM using Ser/Thr 07 as substrate measured after 1 hr by Z'-LYTE assay relative to control; conditions: Insect cell
[17] = tested on: MDA-MB-361; assay: Antitumor activity against human MDA-MB-361 cells xenografted in female nude mouse model assessed as reduction in P-AKT at T308 level at 50 mg/kg, iv administered once a week and measured at least 8 hrs by immunoblot analysis; format: functional, organism-based
[18] = target: Calcium/calmodulin-dependent protein kinase type II subunit alpha (Homo sapiens) (UniProt Q9UQM7); assay: Inhibition of recombinant human full-length His-tagged CAMK2A expressed in insect cells at 2 uM using Ser/Thr 04 as substrate measured after 1 hr by Z'-LYTE assay relative to control; conditions: Insect cell
[19] = target: Serine/threonine-protein kinase PAK 5 (Homo sapiens) (UniProt Q9P286); assay: Inhibition of recombinant human His-tagged PAK7 (425-719 residues) expressed in baculovirus expression system at 2 uM using Ser/Thr 20 as substrate measured after 1 hr by Z'-LYTE assay relative to control
[20] = tested on: LNCaP; assay: Antiproliferative activity against human LNCaP cells assessed as cell growth inhibition at 10 micromol/L incubated for 3 days by MTS assay relative to control; format: functional; conditions: 72 h, dose 10 µmol/L, time 3 day
[21] = target: RAC-beta serine/threonine-protein kinase (Homo sapiens) (UniProt P31751); assay: Inhibition of recombinant human full-length His-tagged AKT2 expressed in insect cells at 2 uM using Ser/Thr 06 as substrate measured after 1 hr by Z'-LYTE assay relative to control; conditions: Insect cell
[22] = target: RAC-gamma serine/threonine-protein kinase (Homo sapiens) (UniProt Q9Y243); assay: Inhibition of recombinant human full-length His-tagged AKT3 expressed in insect cells at 2 uM using Ser/Thr 06 as substrate measured after 1 hr by Z'-LYTE assay relative to control; conditions: Insect cell
[23] = tested on: NCI-H460; assay: Antiproliferative activity against human NCI-H460 cells assessed as cell growth inhibition incubated for 24 hrs by MTS assay; format: functional, cell-based; conditions: NCI-H460, 24 h
[24] = tested on: HCT-116; assay: Induction of apoptosis in human HCT-116 cells assessed as increase in PARP cleavage at 0.3 to 3 micromol/L incubated for 48 hrs by Western blot analysis; format: functional, cell-based; conditions: dose 0.3-3 µmol/L
[25] = target: Ribosomal protein S6 kinase alpha-5 (Homo sapiens) (UniProt O75582); assay: Inhibition of recombinant human full length GST-tagged RPS6KA5 expressed in insect cells at 2 uM using Ser/Thr 01 as substrate measured after 1 hr by Z'-LYTE assay relative to control; conditions: Insect cell
[26] = tested on: A498; assay: cells; conditions: Homo sapiens, A498, 24 h
Description: Antiproliferative activity against human A498 cells assessed as cell growth inhibition incubated for 1 days by MTS assay

[27] = target: Mast/stem cell growth factor receptor Kit (Homo sapiens) (UniProt P10721); assay: Inhibition of recombinant human His-tagged KIT (544-976 residues) expressed in insect cells at 2 uM using […] as substrate measured after 1 hr by Z'-LYTE assay relative to control

Ribosomal protein S6 kinase alpha-5 (Homo sapiens), sequence (O75582 whole entry, looked up): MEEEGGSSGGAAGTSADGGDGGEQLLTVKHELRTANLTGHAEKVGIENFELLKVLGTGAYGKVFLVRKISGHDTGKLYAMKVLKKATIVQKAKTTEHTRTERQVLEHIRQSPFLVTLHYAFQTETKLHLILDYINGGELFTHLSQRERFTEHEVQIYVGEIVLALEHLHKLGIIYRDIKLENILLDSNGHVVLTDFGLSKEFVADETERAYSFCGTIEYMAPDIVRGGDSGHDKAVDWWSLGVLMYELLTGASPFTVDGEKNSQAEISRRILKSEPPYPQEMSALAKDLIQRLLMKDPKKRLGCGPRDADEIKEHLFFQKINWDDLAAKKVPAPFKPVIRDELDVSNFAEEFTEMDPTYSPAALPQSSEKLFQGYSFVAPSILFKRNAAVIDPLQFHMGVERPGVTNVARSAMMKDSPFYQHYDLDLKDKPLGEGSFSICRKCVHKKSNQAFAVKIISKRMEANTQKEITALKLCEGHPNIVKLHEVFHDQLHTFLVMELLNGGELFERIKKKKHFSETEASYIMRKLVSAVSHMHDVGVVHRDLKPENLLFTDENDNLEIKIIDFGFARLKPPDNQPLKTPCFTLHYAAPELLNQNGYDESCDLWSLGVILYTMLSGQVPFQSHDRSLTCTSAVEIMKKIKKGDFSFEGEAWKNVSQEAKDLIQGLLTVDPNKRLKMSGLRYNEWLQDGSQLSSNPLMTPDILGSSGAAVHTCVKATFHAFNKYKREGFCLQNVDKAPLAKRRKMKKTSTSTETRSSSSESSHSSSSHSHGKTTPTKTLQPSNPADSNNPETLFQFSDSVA
RAC-beta serine/threonine-protein kinase (Homo sapiens), sequence (P31751 whole entry): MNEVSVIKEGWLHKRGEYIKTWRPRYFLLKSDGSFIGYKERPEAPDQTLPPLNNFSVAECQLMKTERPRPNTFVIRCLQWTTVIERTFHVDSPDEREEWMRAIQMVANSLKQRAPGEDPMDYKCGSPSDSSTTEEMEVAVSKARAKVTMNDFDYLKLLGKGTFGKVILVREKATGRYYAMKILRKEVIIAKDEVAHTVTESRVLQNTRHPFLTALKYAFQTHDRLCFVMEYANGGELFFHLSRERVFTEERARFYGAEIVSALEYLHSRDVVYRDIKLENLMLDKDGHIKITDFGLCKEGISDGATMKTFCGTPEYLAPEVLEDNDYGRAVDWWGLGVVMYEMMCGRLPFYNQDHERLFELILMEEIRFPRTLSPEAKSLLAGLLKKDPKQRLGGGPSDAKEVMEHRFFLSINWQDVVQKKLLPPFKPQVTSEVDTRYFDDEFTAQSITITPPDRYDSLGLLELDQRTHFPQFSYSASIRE
Calcium/calmodulin-dependent protein kinase type II subunit alpha (Homo sapiens), sequence (Q9UQM7 whole entry, the tested form may be a part): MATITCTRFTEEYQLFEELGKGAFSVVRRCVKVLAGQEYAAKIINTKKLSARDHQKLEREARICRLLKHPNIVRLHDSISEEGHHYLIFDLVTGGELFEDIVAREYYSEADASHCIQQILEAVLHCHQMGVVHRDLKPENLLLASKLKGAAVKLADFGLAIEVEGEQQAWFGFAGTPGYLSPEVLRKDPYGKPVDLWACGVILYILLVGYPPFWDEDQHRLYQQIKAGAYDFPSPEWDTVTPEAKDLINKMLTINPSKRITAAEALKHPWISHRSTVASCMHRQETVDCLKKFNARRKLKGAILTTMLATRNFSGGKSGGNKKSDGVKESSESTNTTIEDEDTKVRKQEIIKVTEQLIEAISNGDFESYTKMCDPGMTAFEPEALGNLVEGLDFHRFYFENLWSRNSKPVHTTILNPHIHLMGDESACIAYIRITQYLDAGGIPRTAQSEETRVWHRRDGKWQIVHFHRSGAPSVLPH
Serine/threonine-protein kinase TAO2 (Homo sapiens), sequence (Q9UL54 whole entry, the tested form may be a part): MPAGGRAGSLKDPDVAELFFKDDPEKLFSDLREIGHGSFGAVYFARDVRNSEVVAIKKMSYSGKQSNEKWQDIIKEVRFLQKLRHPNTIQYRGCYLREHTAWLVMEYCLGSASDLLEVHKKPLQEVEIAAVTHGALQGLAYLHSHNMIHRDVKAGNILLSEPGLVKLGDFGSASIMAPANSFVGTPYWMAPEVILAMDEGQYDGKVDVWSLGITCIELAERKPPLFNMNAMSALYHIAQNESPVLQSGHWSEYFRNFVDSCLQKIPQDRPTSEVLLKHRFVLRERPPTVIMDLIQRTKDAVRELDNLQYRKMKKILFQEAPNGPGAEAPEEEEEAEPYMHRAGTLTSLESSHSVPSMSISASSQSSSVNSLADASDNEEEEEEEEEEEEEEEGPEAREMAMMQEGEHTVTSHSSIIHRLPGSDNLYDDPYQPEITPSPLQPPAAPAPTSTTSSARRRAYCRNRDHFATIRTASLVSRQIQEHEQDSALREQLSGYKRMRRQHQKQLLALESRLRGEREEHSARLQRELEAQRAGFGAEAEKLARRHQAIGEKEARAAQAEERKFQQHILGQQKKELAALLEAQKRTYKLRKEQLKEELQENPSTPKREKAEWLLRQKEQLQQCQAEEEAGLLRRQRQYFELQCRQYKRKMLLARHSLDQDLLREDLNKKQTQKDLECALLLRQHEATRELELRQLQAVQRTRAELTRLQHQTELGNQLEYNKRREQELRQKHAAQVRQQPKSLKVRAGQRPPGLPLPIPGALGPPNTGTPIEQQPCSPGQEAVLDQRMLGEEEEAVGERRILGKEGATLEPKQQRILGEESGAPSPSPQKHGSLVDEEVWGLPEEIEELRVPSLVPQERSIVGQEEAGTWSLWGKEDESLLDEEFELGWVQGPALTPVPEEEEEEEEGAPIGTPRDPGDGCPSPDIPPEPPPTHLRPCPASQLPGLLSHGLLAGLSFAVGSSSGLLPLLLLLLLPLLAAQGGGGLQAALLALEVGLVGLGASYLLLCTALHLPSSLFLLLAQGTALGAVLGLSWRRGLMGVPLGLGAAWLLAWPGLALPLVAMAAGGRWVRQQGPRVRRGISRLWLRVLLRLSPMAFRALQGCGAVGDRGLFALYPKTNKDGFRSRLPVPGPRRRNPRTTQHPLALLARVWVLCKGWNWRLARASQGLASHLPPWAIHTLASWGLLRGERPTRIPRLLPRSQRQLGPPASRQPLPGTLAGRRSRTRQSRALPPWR
Serine/threonine-protein kinase N1 (Homo sapiens), sequence (Q16512 2-942 limits assumed): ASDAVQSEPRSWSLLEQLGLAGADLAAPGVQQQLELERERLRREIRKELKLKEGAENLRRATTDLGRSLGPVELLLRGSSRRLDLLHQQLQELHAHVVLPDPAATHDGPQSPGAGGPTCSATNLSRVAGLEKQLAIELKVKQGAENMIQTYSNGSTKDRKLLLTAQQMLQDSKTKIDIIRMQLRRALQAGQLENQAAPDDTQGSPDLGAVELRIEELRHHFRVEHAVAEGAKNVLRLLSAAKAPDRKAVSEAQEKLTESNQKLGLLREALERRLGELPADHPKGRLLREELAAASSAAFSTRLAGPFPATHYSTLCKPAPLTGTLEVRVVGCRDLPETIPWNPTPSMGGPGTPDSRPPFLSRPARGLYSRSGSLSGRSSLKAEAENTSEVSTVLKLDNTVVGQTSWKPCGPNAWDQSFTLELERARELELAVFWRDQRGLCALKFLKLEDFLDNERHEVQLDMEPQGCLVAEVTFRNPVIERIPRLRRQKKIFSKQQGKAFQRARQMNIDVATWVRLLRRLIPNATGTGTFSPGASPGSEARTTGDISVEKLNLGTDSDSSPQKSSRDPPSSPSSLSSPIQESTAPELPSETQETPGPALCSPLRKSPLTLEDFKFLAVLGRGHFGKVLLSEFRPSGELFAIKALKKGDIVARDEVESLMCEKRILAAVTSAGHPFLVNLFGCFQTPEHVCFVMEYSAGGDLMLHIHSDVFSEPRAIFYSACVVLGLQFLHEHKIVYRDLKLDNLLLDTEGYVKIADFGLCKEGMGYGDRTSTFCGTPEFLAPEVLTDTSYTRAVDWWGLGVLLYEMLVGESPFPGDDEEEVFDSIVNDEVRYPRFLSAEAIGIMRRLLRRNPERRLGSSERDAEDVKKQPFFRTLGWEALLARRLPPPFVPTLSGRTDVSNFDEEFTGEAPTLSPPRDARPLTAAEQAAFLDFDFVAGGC
Serine/threonine-protein kinase PAK 5 (Homo sapiens), sequence (Q9P286 whole entry, looked up, the tested form may be a part): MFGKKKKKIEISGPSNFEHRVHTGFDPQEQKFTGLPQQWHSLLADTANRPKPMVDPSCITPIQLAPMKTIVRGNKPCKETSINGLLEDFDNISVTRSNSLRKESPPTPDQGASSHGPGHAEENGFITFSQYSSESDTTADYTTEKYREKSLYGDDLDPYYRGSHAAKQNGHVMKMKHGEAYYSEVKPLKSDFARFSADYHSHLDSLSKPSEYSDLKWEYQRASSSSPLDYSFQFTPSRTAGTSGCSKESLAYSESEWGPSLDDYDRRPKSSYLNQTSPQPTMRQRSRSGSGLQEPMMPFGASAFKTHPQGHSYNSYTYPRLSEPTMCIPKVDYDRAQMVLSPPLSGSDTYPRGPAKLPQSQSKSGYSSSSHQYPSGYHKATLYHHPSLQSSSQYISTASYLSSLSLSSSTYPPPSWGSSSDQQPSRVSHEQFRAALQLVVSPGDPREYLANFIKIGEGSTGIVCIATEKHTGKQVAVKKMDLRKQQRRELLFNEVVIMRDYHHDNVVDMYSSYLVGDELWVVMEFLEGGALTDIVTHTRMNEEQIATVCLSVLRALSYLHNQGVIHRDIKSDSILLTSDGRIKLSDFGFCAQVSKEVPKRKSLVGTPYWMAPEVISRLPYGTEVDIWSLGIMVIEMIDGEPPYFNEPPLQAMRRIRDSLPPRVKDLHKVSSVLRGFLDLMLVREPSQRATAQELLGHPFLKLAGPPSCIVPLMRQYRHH
Casein kinase I isoform gamma-1 (Homo sapiens), sequence (Q9HCP0 whole entry, looked up, the tested form may be a part, canonical isoform): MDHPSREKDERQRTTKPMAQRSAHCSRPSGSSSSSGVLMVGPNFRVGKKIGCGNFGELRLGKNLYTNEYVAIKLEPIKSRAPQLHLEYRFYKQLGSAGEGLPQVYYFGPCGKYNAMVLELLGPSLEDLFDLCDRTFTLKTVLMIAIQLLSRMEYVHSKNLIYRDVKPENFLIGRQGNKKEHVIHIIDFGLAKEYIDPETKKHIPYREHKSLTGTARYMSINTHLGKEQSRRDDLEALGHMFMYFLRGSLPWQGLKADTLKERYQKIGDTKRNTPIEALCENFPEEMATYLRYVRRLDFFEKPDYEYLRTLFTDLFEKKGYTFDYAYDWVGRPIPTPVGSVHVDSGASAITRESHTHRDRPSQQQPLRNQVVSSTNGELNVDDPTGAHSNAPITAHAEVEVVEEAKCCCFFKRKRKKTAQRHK

**Q.** With `CNC(=O)Nc1ccc(-c2nc(N3CC4CCC(C3)O4)c3cnn(C4CCC5(CC4)OCCO5)c3n2)cc1` as the compound, how does the inhibition [1] read?
**A.** The inhibition was 4%.

**Q.** And the inhibition at 1 µM [2]?
**A.** The inhibition at 1 µM was ~50%.

**Q.** What about the inhibition [3] of the same compound?
**A.** Its inhibition is -2%.

**Q.** And the inhibition [4]?
**A.** Its inhibition is 2%.

**Q.** What about the IC50 [5] of the same compound?
**A.** The IC50 was 2500 nM.

**Q.** What about the IC50 [6] of the same compound?
**A.** Its IC50 is 2 nM.

**Q.** And the inhibition [7]?
**A.** Its inhibition is 1%.

**Q.** And the inhibition at 2 µM [8]?
**A.** The inhibition at 2 µM was 0%.

**Q.** What about the inhibition [9] of the same compound?
**A.** Its inhibition is 7%.

**Q.** What about the inhibition [10] of the same compound?
**A.** The inhibition was 14%.

**Q.** What about the IC50 [11] of the same compound?
**A.** The IC50 was 145 nM.

**Q.** And the inhibition [12]?
**A.** The inhibition was 3%.

**Q.** What about the inhibition [13] of the same compound?
**A.** The inhibition was 3%.

**Q.** What about the inhibition [14] of the same compound?
**A.** Its inhibition is -2%.

**Q.** And the inhibition [15]?
**A.** The inhibition was 2%.

**Q.** And the inhibition [16]?
**A.** The inhibition was 3%.

**Q.** And the Activity [17]?
**A.** Its Activity is “inactive”.

**Q.** And the inhibition [18]?
**A.** The inhibition was 0%.

**Q.** What about the inhibition [19] of the same compound?
**A.** Its inhibition is 11%.

**Q.** What about the inhibition at 10 µM [20] of the same compound?
**A.** The inhibition at 10 µM was 100%.

**Q.** What about the inhibition [21] of the same compound?
**A.** Its inhibition is 5%.

**Q.** And the inhibition [22]?
**A.** The inhibition was 2%.

**Q.** What about the IC50 [23] of the same compound?
**A.** Its IC50 is 300 nM.

**Q.** And the Activity [24]?
**A.** Its Activity is “inactive”.

**Q.** And the inhibition [25]?
**A.** Its inhibition is 1%.

**Q.** What about the IC50 [26] of the same compound?
**A.** The IC50 was > 20000 nM.

**Q.** What about the inhibition [27] of the same compound?
**A.** The inhibition was 10%.

— ChEMBL document CHEMBL5696439 (Cancer Res, 2010)
